Test results: patent US6787522B2, “Antibacterial agents” (British Biotech Pharmaceuticals, priority 1998, dated 2004)
Converted amounts (≈) assume the structure as drawn. Read-outs that look alike come from different tables or passages of the source.

Columns and labels:
Type in all cases: cell-based
[1] = system: Enterococcus faecalis (Vancomycin resistant strain); assay: MIC, Microdilution Broth Method (NCCLS)
[2] = system: Pseudomonas aeruginosa ATCC 27853; assay: MIC, Microdilution Broth Method (NCCLS); conditions: ATCC27853
[3] = system: Klebsiella pneumoniae (American Type Culture Collection number 10031); assay: MIC, Nutrient Broth; conditions: K. pneumoniae, 37° C., 20 hours
[4] = system: Escherichia coli ATCC 12014; assay: MIC, Microdilution Broth Method (NCCLS); conditions: ATCC12014
[5] = system: Morganella morganii ATCC 36030; assay: MIC, Microdilution Broth Method (NCCLS); conditions: ATCC36030
[6] = system: Mycobacterium ranae (American Type Culture Collection number 110); assay: MIC, Brain Heart Infusion broth; conditions: M. ranae, 37° C., 48 hours
[7] = system: Escherichia coli ATCC 25922; assay: MIC, Microdilution Broth Method (NCCLS); conditions: ATCC25922
E. coli strain DH5α = assay: MIC, two fold serial dilution in 2xYT broth; conditions: Escherichia coli, 37° C., 18 hours
[8] = system: Staphylococcus capitis (American Type Culture Collection number 35661); assay: MIC, two fold serial dilution in 2xYT broth; conditions: 37° C., 18 hours
[9] = system: Klebsiella pneumoniae (American Type Culture Collection number 13883); assay: MIC, two fold serial dilution in 2xYT broth; conditions: 37° C., 18 hours
[10] = system: Enterobacter cloacae (American Type Culture Collection number 13047); assay: MIC, two fold serial dilution in 2xYT broth; conditions: 37° C., 18 hours
[11] = system: Klebsiella pneumoniae ATCC 13883; assay: MIC, Microdilution Broth Method (NCCLS); conditions: ATCC13883
[12] = system: Enterobacter cloacae ATCC 13047; assay: MIC, Microdilution Broth Method (NCCLS); conditions: ATCC13047
[13] = system: Staphylococcus epidermidis ATCC 27626; assay: MIC, Microdilution Broth Method (NCCLS); conditions: ATCC27626
[14] = system: Staphylococcus aureus ATCC 6538 MSSA; assay: MIC, Microdilution Broth Method (NCCLS)
[15] = system: Staphylococcus epidermidis ATCC 1228; assay: MIC, Microdilution Broth Method (NCCLS); conditions: ATCC1228
[16] = system: Staphylococcus aureus ATCC 29213 MSSA; assay: MIC, Microdilution Broth Method (NCCLS)
[17] = system: Micrococcus luteus ATCC 9341; assay: MIC, Microdilution Broth Method (NCCLS); conditions: ATCC9341
[18] = system: Staphylococcus aureus ATCC 25923 MSSA; assay: MIC, Microdilution Broth Method (NCCLS)
[19] = system: methicillin-resistant (MR) Staphylococcus aureus (American Type Culture Collection number 33591); assay: MIC, Nutrient Broth; conditions: S. aureus (MR), 37° C., 20 hours
[20] = system: clinical isolates of aminoglycoside and erythromycin resistant Streptococcus pneumoniae; assay: MIC, tryptic soy broth with 7% calf serum
[21] = system: Enterococcus faecalis ATCC 29212; assay: MIC, Microdilution Broth Method (NCCLS)
[22] = system: Helicobacter pylori (American Type Culture Collection number 43504); assay: MIC, Columbia agar base with 7% sheep blood; conditions: H. pylori, 35° C., 72 hours
[23] = system: Pseudomonas aeruginosa (American Type Culture Collection number 9027); assay: MIC, Nutrient Broth; conditions: P. aeruginosa, 37° C., 20 hours
[24] = Enterococcus faecalis (Vancomycin resistant strain), Gram-positive table, read-out: MIC
[25] = Staphylococcus epidermidis ATCC 27626, read-out: MIC
[26] = Staphylococcus aureus ATCC 6538 MSSA, read-out: MIC
[27] = Staphylococcus epidermidis ATCC 1228, read-out: MIC
[28] = Staphylococcus aureus ATCC 29213 MSSA, read-out: MIC
[29] = Micrococcus luteus ATCC 9341, read-out: MIC
[30] = Staphylococcus aureus ATCC 25923 MSSA, read-out: MIC
[31] = Streptococcus pneumoniae, S. pneumoniae, tryptic soy broth, 7% calf serum, 37° C., 48 hours, read-out: MIC
[32] = ATCC29212, Enterococcus faecalis ATCC 29212, Gram-positive table, read-out: MIC
[33] = Helicobacter pylori, read-out: MIC
[34] = Pseudomonas aeruginosa, read-out: MIC
[35] = Enterococcus faecalis Vancomycin resistant strain (multi-resistant clinical isolate), read-out: MIC
[36] = ATCC29212, Enterococcus faecalis ATCC 29212, table of multi-resistant clinical isolate, read-out: MIC
[37] = Enterococcus faecalis, ATCC29212
[38] = Enterococcus faecalis Vancomycin resistant strain (multi-resistant clinical isolate)
[39] = Enterococcus faecalis ATCC 29212, table of multi-resistant clinical isolate

`CCCCC(CN(O)C=O)C(=O)N[C@H](C(=O)NC)C(C)(C)C` (single isomer, unassigned) [Compound 1, 2R (or S)-[(Formyl-hydroxy-amino)-methyl]-hexanoic acid-(2,2-dimethyl-1S-methyl-carbamoyl-propyl)-amide] showed an MIC [1, 24] of 128 µg/mL (≈ 406 µM), an MIC [2] greater than 128 µg/mL and an MIC ([3]; Klebsiella pneumoniae, read-out: MIC) of 0.2 µg/mL (≈ 0.634 µM). It also gave an MIC [4] of 4 µg/mL (≈ 12.7 µM), an MIC [5] of 128 µg/mL (≈ 406 µM) and an MIC [6] of 0.78 µg/mL (≈ 2.47 µM). The MIC [7] was 4 µg/mL (≈ 12.7 µM), the MIC (E. coli strain DH5α) was 12.5 µM (≈ 3.94 µg/mL) and the MIC [8] was 100 µM (≈ 31.5 µg/mL). For the same molecule, the MIC [9] was 25 µM (≈ 7.89 µg/mL), the MIC [10] was 50 µM (≈ 15.8 µg/mL) and the MIC [11] was 16 µg/mL (≈ 50.7 µM). The MIC [12] was 32 µg/mL (≈ 101 µM), the MIC [13, 25] was 8 µg/mL (≈ 25.4 µM) and the MIC [14, 26] was 8 µg/mL (≈ 25.4 µM). It also gave an MIC [15, 27] of 8 µg/mL (≈ 25.4 µM), an MIC [16, 28] of 32 µg/mL (≈ 101 µM) and an MIC [17, 29] of 0.5 µg/mL (≈ 1.59 µM). The MIC [18, 30] was 16 µg/mL (≈ 50.7 µM), the MIC ([19]; Staphylococcus aureus, read-out: MIC) was 3.13 µg/mL (≈ 9.92 µM) and the MIC [20, 31] was 50 µg/mL (≈ 159 µM). For the same molecule, the MIC [21, 32] was 32 µg/mL (≈ 101 µM), the MIC [22, 33] was 0.1 µg/mL (≈ 0.317 µM) and the MIC [23, 34] was 12.5 µg/mL (≈ 39.6 µM).

`CC1(C)S[C@@H]2[C@H](NC(=O)[C@H](N)c3ccccc3)C(=O)N2[C@H]1C(=O)O` [Ampicillin, ampicillin] gave an MIC [1, 35] greater than 128 µg/mL, an MIC ([20]; Streptococcus pneumoniae, 48 h) of 3.13 µg/mL (≈ 8.96 µM) and an MIC [21, 36] of 0.5 µg/mL (≈ 1.43 µM). It also gave an MIC [22, 33] of 0.1 µg/mL (≈ 0.286 µM) and an MIC [23, 34] of 100 µg/mL (≈ 286 µM).

`CC(C)(O/N=C(\C(=O)N[C@@H]1C(=O)N2C(C(=O)[O-])=C(C[n+]3ccccc3)CS[C@H]12)c1csc(N)n1)C(=O)O` [Ceftazidime] was tested, and the MIC ([1]; Enterococcus faecalis) was greater than 128 µg/mL and the MIC [21, 37] was 128 µg/mL (≈ 234 µM).

`CCCCC(CN(O)C=O)C(=O)N[C@H](C(=O)N(C)C)C(C)(C)C` (stereo partly drawn) [Compound 3, 2R (or S)-[(Formyl-hydroxy-amino)-methyl]-hexanoic acid-(1S-dimethylcarbamoyl-2,2-dimethyl-propyl)-amide] showed an MIC [1, 24] of 8 µg/mL (≈ 24.3 µM), an MIC [1, 38] of 8 µg/mL (≈ 24.3 µM) and an MIC [2] of 128 µg/mL (≈ 389 µM). For the same molecule, the MIC [4] was 4 µg/mL (≈ 12.1 µM), the MIC [5] was greater than 128 µg/mL and the MIC [7] was 4 µg/mL (≈ 12.1 µM). For the same molecule, the MIC [11] was 16 µg/mL (≈ 48.6 µM), the MIC [12] was 32 µg/mL (≈ 97.1 µM) and the MIC [13, 25] was 2 µg/mL (≈ 6.07 µM). For the same molecule, the MIC [14, 26] was 4 µg/mL (≈ 12.1 µM), the MIC [15, 27] was 4 µg/mL (≈ 12.1 µM) and the MIC [16, 28] was 8 µg/mL (≈ 24.3 µM). It also gave an MIC [17, 29] of 0.5 µg/mL (≈ 1.52 µM), an MIC [18, 30] of 16 µg/mL (≈ 48.6 µM) and an MIC [21, 32] of 32 µg/mL (≈ 97.1 µM). The MIC [21, 39] was 32 µg/mL (≈ 97.1 µM).

For `CN(C)C(=O)[C@@H](NC(=O)C(CC1CCCC1)CN(O)C=O)C(C)(C)C` (stereo partly drawn) [Cpd 4, 2R (or S)-[(Formyl-hydroxy-amino)-methyl]-3-cyclopentyl-propionic acid (1S-dimethyl-carbamoyl-2,2-dimethyl-propyl)-amide], the MIC [1, 35] was 4 µg/mL (≈ 11.3 µM) and the MIC [21, 36] was 8 µg/mL (≈ 22.5 µM).

For `CC[C@H]1OC(=O)[C@H](C)[C@@H](O[C@H]2C[C@@](C)(OC)[C@@H](O)[C@H](C)O2)[C@H](C)[C@@H](O[C@@H]2O[C@H](C)C[C@H](N(C)C)[C@H]2O)[C@](C)(O)C[C@@H](C)C(=O)[C@H](C)[C@@H](O)[C@]1(C)O` [Erythromycin, erythromycin], the MIC [1, 35] was greater than 128 µg/mL, the MIC [20, 31] was 100 µg/mL (≈ 136 µM) and the MIC [21, 36] was 2 µg/mL (≈ 2.73 µM).

Molecule `C[C@@H](O)[C@H]1C(=O)N2C(C(=O)O)=C(SCCN=CN)C[C@H]12` [Imipenem] has an MIC [1, 35] greater than 128 µg/mL and an MIC [21, 36] of 1 µg/mL (≈ 3.34 µM).

In the case of `CN[C@H](CC(C)C)C(=O)N[C@H]1C(=O)N[C@@H](CC(N)=O)C(=O)N[C@H]2C(=O)N[C@H]3C(=O)N[C@H](C(=O)N[C@H](C(=O)O)c4cc(O)cc(O)c4-c4cc3ccc4O)[C@H](O)c3ccc(c(Cl)c3)Oc3cc2cc(c3O[C@@H]2O[C@H](CO)[C@@H](O)[C@H](O)[C@H]2O[C@H]2C[C@](C)(N)[C@H](O)[C@H](C)O2)Oc2ccc(cc2Cl)[C@H]1O` [Vancomycin, reference compound], the MIC ([1]; Enterococcus faecalis) is reported as greater than 128 µg/mL, the MIC [1, 38] is reported as greater than 128 µg/mL and the MIC ([13]; Staphylococcus epidermidis) is reported as 0.5 µg/mL (≈ 0.345 µM). It also gave an MIC ([14]; Staphylococcus aureus) of 0.5 µg/mL (≈ 0.345 µM), an MIC ([15]; Staphylococcus epidermidis) of 0.5 µg/mL (≈ 0.345 µM) and an MIC ([16]; Staphylococcus aureus) of 0.25 µg/mL (≈ 0.173 µM). For the same molecule, the MIC ([17]; Micrococcus luteus) was 0.25 µg/mL (≈ 0.173 µM), the MIC ([18]; Staphylococcus aureus) was 0.5 µg/mL (≈ 0.345 µM) and the MIC [21, 39] was 1 µg/mL (≈ 0.69 µM). It also gave an MIC [21, 37] of 1 µg/mL (≈ 0.69 µM).

Molecule `CC1(C)S[C@@H]2[C@H](NC(=O)C(C(=O)O)c3ccccc3)C(=O)N2[C@H]1C(=O)O` (stereo partly drawn) [carbenicillin] has an MIC (E. coli strain DH5α) of 25 µM (≈ 9.46 µg/mL), an MIC [8] of less than 1.56 µM and an MIC [9] of 200 µM (≈ 75.7 µg/mL). The MIC [10] was greater than 200 µM.

`O=C(N[C@H](CO)[C@H](O)c1ccc([N+](=O)[O-])cc1)C(Cl)Cl` [chloramphenicol] was tested, and the MIC (E. coli strain DH5α) was 3.12 µM (≈ 1.01 µg/mL), the MIC [8] was 6.25 µM (≈ 2.02 µg/mL) and the MIC [9] was 12.5 µM (≈ 4.04 µg/mL). The MIC [10] was 25 µM (≈ 8.08 µg/mL).

`NC[C@H]1O[C@H](O[C@H]2[C@H](O)[C@@H](O[C@H]3O[C@H](CO)[C@@H](O)[C@H](N)[C@H]3O)[C@H](N)C[C@@H]2N)[C@H](O)[C@@H](O)[C@@H]1O` [kanamycin] gave an MIC (E. coli strain DH5α) of 12.5 µM (≈ 6.06 µg/mL), an MIC [8] of less than 1.56 µM and an MIC [9] of 25 µM (≈ 12.1 µg/mL). It also gave an MIC [10] of 50 µM (≈ 24.2 µg/mL).

gentamycin [reference compound] was tested, and the MIC [3] was 0.39 µg/mL, the MIC [19] was 0.78 µg/mL and the MIC ([20]; S. pneumoniae, tryptic soy broth, 7% calf serum, 37° C., 48 hours) was 100 µg/mL. It also gave an MIC [22] of 0.78 µg/mL and an MIC [23] of 0.78 µg/mL.
